Assays:
[1] = tested on: GAL4EcR + VP16RXR; assay: Transactivation of reporter genes through switch 1.1 in 293 cells; assay type: cell-based, Choristoneura fumiferana; details: switch 1.1 GAL4EcR + VP16RXR, pGAL4RELuc
Method: (§1) The same procedures described for CHO were followed for 293 cells except that the cells were plated in biocoated plates to avoid clumping.
(§2) Cells were harvested 24-48 hr after adding ligands. […] Twenty μl of lysate was assayed.

[2] = tested on: CfVgRXR + MmRXR; assay: Transactivation of reporter genes through switch 1.9 in 293 cells; assay type: cell-based, Choristoneura fumiferana; details: switch 1.9 CfVgRXR + MmRXR, pIND(SP1)LacZ
Method: (§3) This example was prepared in the same way as switch 1.8 except DinEcR was replaced with a truncated CfEcR comprising a partial A/B domain and the complete CDEF domains [SEQ ID NO: 62 (polynucleotide) and SEQ ID NO: 63 (polypeptide)].
as §1, §2

[3] = tested on: GAL4EcR + VP16RXR; assay: Transactivation of reporter genes through switch 1.1 in CV1 cells; assay type: cell-based, Choristoneura fumiferana; details: switch 1.1 GAL4EcR + VP16RXR, pGAL4RELuc
Method: The same procedures described for NIH3T3 cells were followed for CV1 cells
as §2

[4] = tested on: VP16CfEcR; assay: Transactivation of reporter genes through switch 1.7 in 293 cells; assay type: cell-based, Choristoneura fumiferana; details: switch 1.7 VP16CfEcR, pEcRELuc
Method: Six ecdysone response elements (“EcRE”; SEQ ID NO: 59) from the hsp27 gene were placed upstream of the promoter and a luciferase gene (SEQ ID NO: 57). This switch most probably uses endogenous RXR.
as §1, §2

[5] = tested on: CfVgRXR + MmRXR; assay: Transactivation of reporter genes through switch 1.9 in CHO cells; assay type: cell-based, Choristoneura fumiferana; details: switch 1.9 CfVgRXR + MmRXR, pIND(SP1)LacZ
Method: as §3
(§4) The cells were harvested and reporter activity was assayed.
as §2

[6] = tested on: GAL4RXR + VP16CfEcR; assay: Transactivation of reporter genes through switch 1.3 in 293 cells; assay type: cell-based, Choristoneura fumiferana; details: switch 1.3 GAL4RXR + VP16CfEcR, pGAL4RELuc
Method: as §1, §2

[7] = target: T1, GAL4RXR + VP16DmEcR (Drosophila melanogaster, UniProt P34021); assay: Transactivation of reporter genes through switch 1.4 in 293 cells; assay type: cell-based; design: expressed in transfected cells; host or cells: 293 cells (transient co-transfection); details: switch 1.4 GAL4RXR + VP16DmEcR, pGAL4RELuc
T1 sequence (P34021 254-878): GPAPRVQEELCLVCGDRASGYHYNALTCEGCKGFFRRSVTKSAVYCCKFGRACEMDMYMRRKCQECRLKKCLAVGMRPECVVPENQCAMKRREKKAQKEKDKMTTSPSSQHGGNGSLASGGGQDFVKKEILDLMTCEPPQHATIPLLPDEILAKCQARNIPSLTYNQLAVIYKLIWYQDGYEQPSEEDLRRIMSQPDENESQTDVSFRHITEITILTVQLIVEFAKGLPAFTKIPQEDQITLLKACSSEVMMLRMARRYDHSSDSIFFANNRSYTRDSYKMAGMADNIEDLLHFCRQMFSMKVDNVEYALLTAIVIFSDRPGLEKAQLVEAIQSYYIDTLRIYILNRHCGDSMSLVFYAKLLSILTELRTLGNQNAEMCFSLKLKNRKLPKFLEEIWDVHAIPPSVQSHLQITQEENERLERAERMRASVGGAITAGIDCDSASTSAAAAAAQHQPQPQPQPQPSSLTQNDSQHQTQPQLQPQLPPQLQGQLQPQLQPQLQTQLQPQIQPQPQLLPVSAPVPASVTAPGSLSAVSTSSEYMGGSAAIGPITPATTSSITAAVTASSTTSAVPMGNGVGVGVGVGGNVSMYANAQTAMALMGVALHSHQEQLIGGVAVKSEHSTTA
T1 sequence (P28700 206-467 partner limits assumed): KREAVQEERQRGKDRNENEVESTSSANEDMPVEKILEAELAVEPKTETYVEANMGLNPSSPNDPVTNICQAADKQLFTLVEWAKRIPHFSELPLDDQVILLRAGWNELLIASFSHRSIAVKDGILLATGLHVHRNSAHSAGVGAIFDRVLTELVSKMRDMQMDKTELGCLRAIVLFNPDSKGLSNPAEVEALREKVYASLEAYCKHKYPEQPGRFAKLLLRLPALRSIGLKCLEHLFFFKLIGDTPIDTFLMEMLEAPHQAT
Method: This construct was prepared in the same way as switch 1.3 except CfEcRCDEF was replaced with DmEcRCDEF (SEQ ID NO: 6).
as §1, §2

[8] = tested on: CfVgRXR; assay: Transactivation of reporter genes through switch 1.10 in 3T3 cells; assay type: cell-based, Choristoneura fumiferana; details: switch 1.10 CfVgRXR, pIND(SP1)LacZ
Method: (§5) This example was prepared in the same way as switch 1.9 except MmRXR (SEQ ID NO: 53) was deleted.
The cells were plated when they reached 50% confluency.
as §2

[9] = tested on: CfVgRXR; assay: Transactivation of reporter genes through switch 1.10 in 293 cells; assay type: cell-based, Choristoneura fumiferana; details: switch 1.10 CfVgRXR, pIND(SP1)LacZ
Method: as §5, §1, §2

[10] = tested on: GAL4RXR + VP16CfEcR; assay: Transactivation of reporter genes through switch 1.3 in CHO cells; assay type: cell-based, Choristoneura fumiferana; details: switch 1.3 GAL4RXR + VP16CfEcR, pGAL4RELuc
Method: as §4, §2

In the case of CCc1c(OC)cccc1C(=O)NN(C(=O)c1cc(C)cc(C)c1)C(C)(C)C [N-(2-ethyl-3-methoxybenzoyl)-N′-(3,5-dimethylbenzoyl)-N′-tert-butylhydrazine], the “Mean Fold Activation Through N-(2-ethyl-3-methoxybenzoyl)-N′-(3,5-dimethylbenzoyl)-N′-t-butylhydrazine” value [1] is reported as 125 fold, the “Mean Fold Activation Through N-(2-ethyl-3-methoxybenzoyl)-N′-(3,5-dimethylbenzoyl)-N′-t-butylhydrazine” value [2] is reported as 12 fold and the “Mean Fold Activation Through N-(2-ethyl-3-methoxybenzoyl)-N′-(3,5-dimethylbenzoyl)-N′-t-butylhydrazine” value [3] is reported as 279 fold. The “Mean Fold Activation Through N-(2-ethyl-3-methoxybenzoyl)-N′-(3,5-dimethylbenzoyl)-N′-t-butylhydrazine” value [4] was 2 fold, the “Mean Fold Activation with 50 μM N-(2-ethyl-3-methoxybenzoyl)-N′-(3,5-dimethylbenzoyl)-N′-t-butylhydrazine” value [5] was 27 fold and the “Mean Fold Activation Through N-(2-ethyl-3-methoxybenzoyl)-N′-(3,5-dimethylbenzoyl)-N′-t-butylhydrazine” value [6] was 17 fold. The “Mean Fold Activation Through N-(2-ethyl-3-methoxybenzoyl)-N′-(3,5-dimethylbenzoyl)-N′-t-butylhydrazine” value [7] was 3 fold, the “Mean Fold Activation Through N-(2-ethyl-3-methoxybenzoyl)-N′-(3,5-dimethylbenzoyl)-N′-t-butylhydrazine” value [8] was 2 fold and the “Mean Fold Activation Through N-(2-ethyl-3-methoxybenzoyl)-N′-(3,5-dimethylbenzoyl)-N′-t-butylhydrazine” value [9] was 3 fold. For the same molecule, the “Mean Fold Activation with 50 μM N-(2-ethyl-3-methoxybenzoyl)-N′-(3,5-dimethylbenzoyl)-N′-t-butylhydrazine” value [10] was 85 fold.

Reference: patent US8822754B2, “Ecdysone receptor-based inducible gene expression system” (Intrexon Corporation, priority 2000, dated 2014)
